Results reported in patent US20100055169A1, “CATIONIC LIPIDS AND USES THEREOF” (ABBOTT LABORATORIES, priority 2008, published 2010).

Legend:
Assay type in all cases: physicochemical
[1] = RiboGreen assay of siRNA encapsulation efficiency, in vivo formulations of Lipid-Based Particles; conditions: lipid:siRNA 25:1
Method: RNA concentration and encapsulation efficiency were determined using a Quant-iT® Ribogreen RNA reagent and kit available from Invitrogen. The siRNA was released from the Lipid-Based Particle using one of the following reagents: ethanol, Triton X-100, or phenol/chloroform. The siRNA concentration is quantified using fluorescent reading at 480 nm/520 nm.
The lipid solution was prepared (10 mg/ml) by dissolving the lipid in 200 proof ethanol. The lipid mixture solution is prepared according to the above composition in Table 5.
An siRNA (TetR_ODC—12, G.G.G.G.A.A.A.G.C.U.G.G.C.A.A.G.A.U.U.U.U SEQ ID NO: 1) (ThermoFisher) solution is prepared in a concentration of 10 mg/ml by dissolving 10 mg siRNA in 1 ml of DNAse/RNAse-free distilled water.
A round bottom flask was submerged into a 65° C. water bath. Citrate buffer (37.5 ml) of pH 4.0 was pipetted into the flask. The solution was stirred by a magnetic stirring bar at a speed of 900 rpm. Both the pH 4.0 citrate buffer and the lipid solution were pre-warmed in the 65° C. water bath for about 3 minutes. A siRNA solution (0.5 ml) was pipetted into the pH 4.0 citrate buffer. The 12.5 ml lipid mixture solution was injected through a 27 gauge needle into the citrate buffer in about 30 seconds. The needle tip was inserted into the solution during the injection. The resulting solution was stirred for 5 minutes at a speed of 900 rpm. The flask was pulled up from the water bath and a 50 ml pH 7.4 PBS buffer was added into the flask. The final solution was further mixed at a speed of 900 rpm for 5 minutes. For the diafiltration process, a dialysis filter (Millipore, 100K, Cat#PXB100C50) was used to remove ethanol in the above solution. When the volume was reduced to 20 ml during the initial diafiltration, 20 ml of pH 7.4 PBS was added to the sample solution. The diafiltration was continued until the volume was reduced to 20 ml. The diafiltration process was repeated 4 times. The volume of the sample solution was reduced to about 12 ml and pH 7.4 PBS was added to make the final volume of 15 ml. The 15 ml solution was filtered sequentially through the 0.45 and 0.22 μm sterile PVDF membrane filters (Millipore) and immediately transferred into a sterile vial.

[2] = RiboGreen assay of siRNA encapsulation efficiency, in vitro formulations of Lipid-Based Particles; conditions: in vitro formulation b: Cationic lipid/PEG-cholesterol/DSPC/Chol 45/10/15/30 wt %, lipid:siRNA 25:1
Outline: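 siRNA in pH 4.0 citrate buffer (20 mM, 0.2 mg/mL) mixed at 60 °C with an ethanolic lipid blend (cationic lipid, cholesterol, non-cationic lipid, PEG-lipid), then diluted with PBS pH 7.4. Encapsulation efficiency from RiboGreen fluorescence (480/520 nm) with siRNA released by ethanol, Triton X-100 or phenol/chloroform.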

[3] = Particle sizing by dynamic light scattering (DynaPro plate reader), in vitro formulations; conditions: in vitro formulation b: Cationic lipid/PEG-cholesterol/DSPC/Chol 45/10/15/30 wt %, lipid:siRNA 25:1
Method: The siRNA concentrations were measured using Quanti-iT RiboGreen RNA reagent (Molecular Probes, (R11490)). Vesicle sizes were characterized by dynamic light scattering with a DynaPro™ Plate Reader (Wyatt Technology) in 96-well half-area UV plate (Coring) after diluting the formulation sample (20 μL) in phosphate buffered saline (80 μL) at a pH of about 7-8. A 1% agarose gel-based assay was used for analyzing nuclease degradation and protection. Encapsulation efficiency (EE) was calculated using data obtained from a RiboGreen assay.
Particle sizes and size distributions (PDI) were characterized by using dynamic light scattering (DLS). A DLS plate reader (Dynapro™, Wyatt Technology) was used for the DLS measurement. This DLS plate reader uses an 830 nm laser and the scattering angle is 158°. It also can control temperature from 4° C. to 70° C. A 96-well format was employed for the samples.
Samples for DLS analysis were prepared by mixing 20 μL of each sample stock solution with 80 μL PBS directly in the 96-well plate (#3697, Corning). Sample mixing was accomplished using a microplate shaker (Orbis, Mikura Ltd.). Plates were read at 20° C. with an acquisition time of 50 seconds for each sample, and data was analyzed with Wyatt Technology's Dynamics V6 software. To rule out potential multiple scattering artifacts, a second plate at 4-fold reduced sample concentrations was independently prepared by mixing 5 μL stock solutions with 95 μL PBS. Under our experimental conditions the results at the two concentrations were very similar, and the final reported result for each sample represents the average of values obtained from the two plates.

% Encapsulation Efficiency ([1]; in vivo formulation A: Cationic lipid/Example 73/DSPC/Chol 45/10/15/30 wt %): 96.6%
% Encapsulation Efficiency ([1]; in vivo formulation B: Cationic lipid/PEG-cholesterol/DSPC/Chol 45/10/15/30 wt %): 89.3%
% Encapsulation Efficiency ([1]; in vivo formulation C: Cationic lipid/Pal-PEG-Cera/DSPC/Chol 45/10/15/30 wt %): 97.8%
% Encapsulation Efficiency ([1]; in vivo formulation D: Cationic lipid/Example 66/DSPC/Chol 45/10/15/30 wt %): 97.0%
% Encapsulation Efficiency ([1]; in vivo formulation E: Cationic lipid/Example 53/DSPC/Chol 45/10/15/30 wt %): 79.3%
% Encapsulation Efficiency ([1]; in vivo formulation F: Cationic lipid/Example 54/DSPC/Chol 45/10/15/30 wt %): 96.1%
% Encapsulation Efficiency ([1]; in vivo formulation G: Cationic lipid/Example 55/DSPC/Chol 45/10/15/30 wt %): 96.7%
% Encapsulation Efficiency ([1]; in vivo formulation H: Cationic lipid/PEG-DMPE/DSPC/Chol 45/10/15/30 wt %): 97.3%
% Encapsulation Efficiency ([1]; in vivo formulation I: Cationic lipid/PEG-DPPE/DSPC/Chol 45/10/15/30 wt %): 92%
% Encapsulation Efficiency ([1]; in vivo formulation J: Cationic lipid/PEG-DSPE/DSPC/Chol 45/10/15/30 wt %): 100%
% Encapsulation Efficiency ([1]; in vivo formulation K: Cationic lipid/PEG-DMG/DSPC/Chol 45/10/15/30 wt %): 99.5%
% Encapsulation Efficiency ([1]; in vivo formulation L: Cationic lipid/PEG-DPG/DSPC/Chol 45/10/15/30 wt %): 90%
% Encapsulation Efficiency ([1]; in vivo formulation M: Cationic lipid/PEG-DSG/DSPC/Chol 45/10/15/30 wt %): 100%
% Encapsulation Efficiency ([1]; in vivo formulation NN: Cationic lipid/Example 74/DSPC/Chol 45/10/15/30 wt %): 97.3%
% Encapsulation Efficiency ([1]; in vivo formulation OO: Cationic lipid/Example 75/DSPC/Chol 45/10/15/30 wt %): 99.5%
% Encapsulation Efficiency ([1]; in vivo formulation P: Cationic lipid/PEG-DSPE/DOPE/Chol 45/10/15/30 wt %): 97%
% Encapsulation Efficiency ([1]; in vivo formulation PP: Cationic lipid/Example 73/Chol 45/10/45 wt %): 97.4%
% Encapsulation Efficiency ([1]; in vivo formulation Q: Cationic lipid/PEG-DSPE/DOPC/Chol 45/10/15/30 wt %): 97%
% Encapsulation Efficiency ([1]; in vivo formulation R: Cationic lipid/PEG-DSPE/SPC/Chol 45/10/15/30 wt %): 97%
% Encapsulation Efficiency [2]: 97.0%
Size [3]: 135.4 nm
Compound: CCCCC/C=C\C/C=C\CCCCCCCCOCC(CCN1CCCC1)OCCCCCCCC/C=C\C/C=C\CCCCC (stereo not drawn) [Example 24, 1-{3,4-bis[(9Z,12Z)-octadeca-9,12-dienyloxy]butyl}pyrrolidine]
